Series [1] deals with human enteroendocrinal L cells (NCI-H716). Description: In vitro GLP-1 secretion assay. The format is cell-based. The note with it: L cells pretreated with compound. On the procedure: In vitro GLP-1 secretion assay was performed in human enteroendocrinal L cells (NCI-H716). For each secretion assay, cells were seeded at 1×10^5 cells/ml (1 ml/well) in a matrigel-coated 24-well plate. Prior to GLP-1 secretion assay, cells were pre-treated with DMSO, 1 μM Fex, or 1 μM Fex-D overnight. Cells were deprived in Krebs buffer (with 0.1% BSA) with dipeptidyl peptidase (DPP)-4 inhibitor ([…] sitagliptin). GLP-1 was measured with a commercial kit (EZGLP1T-36K, Millipore). For in vivo GLP-1 secretion, each animal was gavaged with 25 mg per kg of body weight sitagliptin 60-minutes before glucose load. Blood was collected from the tail vein at the indicated intervals, and transferred to serum collection tubes containing sitagliptin.

Series [2] in a line: in vitro permeability in Caco2 cells. The note with it: human; for Papp A→B at 2 h, 10 μM: Caco2 cells, assay conc. 10 μM.
Series [3] has as its system Leptin-deficient ob/ob mice. Description: metabolic phenotype and glucose homeostasis of treated ob/ob mice. Type of series: in vivo, mouse. On the procedure:
Leptin-deficient ob/ob mice were purchased from Jackson laboratory (stock no. 000632). Each mouse consumed 100 mg per kg of body weight Fex (in corn oil) per day by oral gavage for 5 weeks. For in vivo analog study, each mouse consumed 50 mg per kg of body weight Fex-D (in corn oil) per day by oral gavage for 14 days. For GLP-1 receptor antagonist study, each mouse was daily treated with 100 μg per kg of body weight Exendin 9-39 amide (Abcam) via intraperitoneal injection for 2 weeks. For INT-777 study, each mouse was daily gavaged with 60 mg per kg of body weight INT-777 (in corn oil) for 5 weeks. For FGF15 study, each mouse was daily treated with 0.25 mg per kg of body weight FGF15 (in PBS with 0.1% BSA) via intravenous injection for 2 weeks. The sample sizes for all animal studies are indicated in each figure legend. All mice were housed in a specific pathogen-free facility with a 12-h light, 12-h dark cycle and given free access to food and water. All in vivo data were retrieved from 3 independent experimental animal cohorts. Core body temperature was measured with a clinical rectal thermometer (Thermalert model TH-5; Physitemp). For GTTs, 6-h fasted mice received 2 g of glucose per kg of body weight by oral gavage. Human insulin (Humilin, Eli Lilly) was used for insulin sensitivity test. Tail blood was drawn at indicated time intervals, and blood glucose level was measured with a One Touch Ultra glucometer (LifeScan). Body composition was measured with Echo MRI-100 body composition analyzer (Echo Medical Systems). All mice were randomly assigned to experimental groups for further analysis. No samples were excluded from the analysis.
Real-time metabolic analyses were conducted in a Comprehensive Lab Animal Monitoring System (Columbus Instruments). CO2 production, O2 consumption, RQ (relative rates of carbohydrate versus fat oxidation) and ambulatory counts were determined for 4 consecutive days and nights, with at least 24-h for adaptation before data recording.
To investigate the effect of Fex treatment in a diabetic mouse model, leptin-deficient obese mice (ob/ob) were subjected to daily treatment by oral gavage (100 mg/kg) for 5 weeks. […] Gene expression analysis confirmed the induction of UCP1 as well as a number of genes involved in β-oxidation, thermogenesis and oxidative phosphorylation (FIG. 1B-1D).

Series [4] concerns NCI-H716 cells. As to the kind of experiment: Extracellular oxygen consumption rate assay (Seahorse XF96). The format is cell-based, human. On the procedure:
Briefly, NCI-H716 cells were seeded in XF 96-well cell culture microplates (Seahorse Bioscience) at 6.0×10^4 cells per well in 150 μl of growth medium and then incubated at 37° C./5% CO2 for 24 hr. A Seahorse Bioscience instrument model XF96 was used to measure the rate of change of dissolved oxygen in the media surrounding the cells. All procedures followed manufacturer's instructions. […] Conversely, treatment with the FXR antagonist guggulsterone reduced basal respiratory rates and the FCCP-induced maximum respiration rate (FIGS. 9A and 9B). To examine the effects of FXR activity on the secretion of GLP-1, the metabolic changes induced in human L cells was measured after treatment with the FXR agonist, fexaramine and an FXR antagonist, guggulsterone. Treatment of L cells with fexaramine (1 μM for 24 hours) lead to an increase in the oxygen consumption rate (OCR), consistent with increased mitochondrial activity and consequently, an increased energetic state (FIG. 9A). The reverse effect was seen after treatment with the FXR antagonist, guggulsterone, with lower OCR after drug treatment.

Series [5] deals with enteroendocrinal L cells. Description: Gene expression analysis (QPCR) in enteroendocrinal L cells. Type of series: cell-based, human.
Setting [6] is: Fex 100 mg/kg daily oral gavage, 5 weeks.
Setting [7] is: Fex 100 mg/kg daily oral gavage, 5 weeks, after 4 hour fast.

Entries after “also recorded” stand apart in the source; their conditions may differ.

For `COC(=O)/C=C/c1cccc(N(Cc2ccc(-c3ccc(N(C)C)cc3)cc2)C(=O)C2CCCCC2)c1` [Fexaramine], the “GLP-1 secretion in response to a glucose challenge” value in series [1] was “significant increase”. In series [2] (Caco-2), the Papp B→A at 2 h, 10 μM was determined as 0.77 ×10⁻⁶ cm/s and the recovery at 2 h, 10 μM stood at 150%. Further, the Papp A→B at 2 h, 10 μM in series [2] (Caco-2, A-B Permeability Ranking) is less than 1 ×10⁻⁶ cm/s. For the same molecule, the Papp A→B at 2 h, 10 μM in series [2] (Caco-2, Mean Papp, A-B, 2 hour incubation) worked out at 0.597 ×10⁻⁶ cm/s. Moreover, in series [3] (setting [6]), the core temperature entry is “increase”, the glucose tolerance entry is on record as “improved”, the “gonadal fat (gWAT) tissue weight” value was “modestly but significantly reduced” and the hepatic gluconeogenesis/lipogenesis result is “remarkably suppressed”. Also, in series [3] (setting [6]), the insulin sensitivity result is given as “improved” and the “proportion of M2 macrophages in gWAT” value is given as “increasing”. Moreover, in series [3] (setting [7]), the glucose levels result was “reduced” and the insulin levels result is listed as “reduced”. Further, the “respiratory exchange ratio in the dark period” value in series [3] (Fex 100 mg/kg daily oral gavage, 5 weeks, metabolic cages) was “increased”. In addition, in series [3] (monitored for 4 weeks after Fex treatment was stopped), the “time serum glucose levels remained low after cessation of treatment” value is given as 3 weeks. Also, the “maximum respiration rate induced by FCCP” value in series [4] (L cells, Fex 1 μM for 24 hr, vehicle-treated L cells 130%) came to 155%. Further, the “oxygen consumption rate (OCR)” value in series [4] (human L cells, 24 hours, fexaramine 1 μM, guggulsterone 10 μM) is listed as “increase”. Besides, in series [5], the DPP4 expression entry is recorded as “no effect” and the proglucagon expression result is recorded as “no effect”. Moreover, in series [5] (listed as Fex), the “SHP expression (FXR target gene)” value is on record as “induced; also recorded: induction”.

The values above are taken from patent publication US20180000768A1, “INTESTINAL FXR AGONISM ENHANCES GLP-1 SIGNALING TO RESTORE PANCREATIC BETA CELL FUNCTIONS” (Salk Institute for Biological Studies, priority 2015, published 2018).
